Experiment [1] has as its system Scenedesmus acutus. As to the kind of experiment: Algae production in 800 mL bioreactors with different nitrogen sources / CO2:NH3 mole ratios. It is filed as cell-based. The settings on record: constant gas sparging, nitrogen source compared, no unit in Table 8 (FIG. 33: productivity g/L/day). How it is done:
To Examine the effect CO2:NH3 mole ratios on Scenedesmus acutus culture health and productivity, experiments were conducted in 800 mL bioreactors with constant gas sparging and different CO2:NH3 mole ratios (ranging from 7:1 up to 18:1) (FIG. 33). The “cycles” indicated in FIG. 33 refer to growth cycles of algae. In this regard, each bioreactor is normally inoculated with algae at a low concentration (e.g., 0.1 g/LO and the algae are allowed to grow until a concentration of 1 g/L is obtained. At this point, the algae are harvested until a concentration of 0.1 g/L is left in the bioreactor (with the addition of fresh nutrients and water). The algae are allowed to grow again until a concentration of 1 g/L is again reached, followed by harvesting. Each period of growth up to harvesting is characterized as a growth cycle.

The subject of experiment [2] is Scenedesmus acutus. The settings on record: same molar N concentration; 3% CO2; 21 days; n=3. How it is done: In parallel, an experiment was performed using urea as a control (FIG. 13, tubes 1-3).
Experiments were conducted in a temperature controlled (20-27° C.) 10 L tubular photobioreactor system (FIG. 13). An artificial light system set to a 16:8 light/dark cycle (T5 cool white fluorescent bulbs) delivered 500 micromole m^−2 s^−1 PAR of photoactive radiation. CO2 was delivered as 3% CO2/nitrogen balance from gas cylinders. The experiments ran for 21 days.
Three times a week pH, UV-vis absorbance and dry mass measurements were made.

Experimental findings from patent US12515170B2, “CO2 capture and utilization system and method” (University of Kentucky Research Foundation, priority 2021, dated 2026) are described below.

With `NC(N)=O` [Urea, urea], the growth rate with Scenedesmus acutus [1] worked out at 0.11 ± 0.04.

For `N.N.O=C(O)O` [(NH4)2CO3, ammonium carbonate], in the experiment with Scenedesmus acutus [2], the “algae growth rates by dry mass measurements versus urea control” value is on record as “significantly higher than for the control” and the “culture productivity by UV-vis absorbance at 560 nm versus urea control” value is reported as “significantly more productive than the control”.

For the compound `O=[N+]([O-])[O-].[Na+]` [NaNO3], the growth rate with Scenedesmus acutus [1] is reported as 0.13 ± 0.05.
